Measured values as given in the CheMixHub drug solubility set.

Assay: xn = mol fraction of the nth substance listed, in the solute-free solvent

Cc1ccc2cc(Br)ccc2n1 + CCO + O
solubility (g/100 g solution)
Conditions	278.15 K	283.15 K	288.15 K	293.15 K	298.15 K	303.15 K	308.15 K	313.15 K	318.15 K	323.15 K
x2 = 0.04165	0.0289	0.0336	0.0393	0.0455	0.0528	0.0607	0.0707	0.0816	0.0939	0.108
x2 = 0.08908	0.0673	0.0777	0.0902	0.103	0.119	0.137	0.158	0.181	0.207	0.237
x2 = 0.1436	0.119	0.137	0.159	0.181	0.209	0.239	0.276	0.315	0.359	0.411
x2 = 0.2068	0.176	0.203	0.234	0.267	0.308	0.354	0.408	0.466	0.53	0.607
x2 = 0.2812	0.218	0.26	0.304	0.347	0.4	0.46	0.535	0.61	0.695	0.798
x2 = 0.3698	0.266	0.313	0.373	0.43	0.501	0.579	0.667	0.762	0.873	1.01
x2 = 0.4772	0.308	0.37	0.442	0.521	0.603	0.705	0.819	0.935	1.07	1.24
x2 = 0.6101	0.356	0.425	0.505	0.593	0.693	0.812	0.948	1.09	1.27	1.47
x2 = 0.7788	0.399	0.477	0.569	0.67	0.785	0.925	1.08	1.25	1.44	1.66
